The source of these data is patent publication US20240199623A1 (ILDONG PHARMACEUTICAL CO., LTD., priority 2020, published 2024).

≈ marks a conversion by molar mass, not a printed value.

A word on the solubility: it is how much of the substance goes into solution per volume.

The nature of series [1]: Phosphate-buffered saline (PBS) solubility of compounds. It is filed as physicochemical. The following applies: aqueous buffer, thermodynamic from solid, PBS pH 7.5, 0.5 mg/mL, vortexed 90 min, filtered, LC-MS/MS, read-out: Solubility Range. As for the experimental part: PBS solutions (pH 7.5) were prepared according to the following compositions and stored at 4° C. Test compounds were dissolved in PBS (pH 7.5) at 0.5 mg/mL and vortexed for 90 min. The PBS solution was sequentially filtered through a 0.45, 1.2, […] syringe filter. Concentration of test compounds were determined using LC-MS/MS with appropriate dilution of the samples.

For a further series, the system named is C57BL/6 female mice. Kind of series: Scopolamine induced tear volume reduction model. The class given is in vivo, mouse. Conditions: scopolamine-injected mice, ophthalmic solution topically on both eyes 3 times a day, phenol red thread; average if evaluated twice. The method, then: Seven-week old C57BL/6 female mice were used.
Scopolamine hydrobromide was purchased from Sigma Aldrich (Cat No. S0929), dissolved in saline, and sterilized prior to use.
Zone-Quick phenol red thread was obtained from Menicon.
The test compounds used in this experiment were dissolved in PBS containing 1% of surfactant.
Scopolamine (0.2 ml of 2.5 mg/mL solution) was injected subcutaneously 3 times a day to induce a decrease in the tear volume in the mouse. At the same time, the ophthalmic solution of test compounds or vehicle were topically administered onto both eyes 3 times a day. Tear volume was measured by phenol red thread before dosing (basal level) and 1 hour after the last administration of scopolamine and ophthalmic solution. The results were obtained by measuring the length of the phenol red thread turning red by tears. The schedule of study is expressed as FIG. 1.
If the test compound was evaluated twice, the average value was used.

For series [2], the target named is T1, human wild type-CFTR (Homo sapiens, UniProt P13569). Kind of series: Short-circuit current measurement. The following applies: FRT cells expressing human wild type-CFTR; Forskolin 20 μM signal used as 100% activity; read-out: Short-circuit current measurement (EC50) Concentration range. It is filed as cell-based. Also noted: expressed in transfected cells. The source says: Forskolin (Tocris cat. #1099), CFTRinh-172 (Tocris cat. #3430), amphotericin B (Tocris cat. #6930), dimethyl sulfoxide (Sigma cat. #D4540), EVC4000 Multi-Channel V/I Clamp (World Precision Instruments, Sarasota, FL), PowerLab 4/35 (AD Instruments, Castle Hill, Australia), Labchart Pro 7, GraphPad Prism 5 (GraphPad Software, Inc.). Fisher rat thyroid (FRT) cells expressing human wild type-CFTR were provided by Dr. Alan Verkman (University of California, San Francisco) and grown in DMEM/F12 medium (1:1) supplemented with 10% FBS, 2 mM glutamine, 100 units/ml penicillin and 100 μg/ml streptomycin. Snapwell inserts containing CF TR-expressing FRT cells were mounted in Ussing chambers (Physiologic Instruments, San Diego, CA). […] Forskolin, test compounds, and CFTRinh-172 were added to the apical and basolateral bath solution. Apical membrane current and short-circuit current were measured with an EVC4000 Multi-Channel V/I Clamp (World Precision Instruments, Sarasota, FL) and recorded using PowerLab 4/35 (AD Instruments, Castle Hill, Australia). Data were collected and analyzed with ADInstruments acquisition software Labchart Pro 7 software. The sampling rate was 4 Hz.

Series [3] deals with T1, human wild type-CFTR. Put plainly: Cell-based YFP assay. Conditions: CHO-K1 cells expressing human wild type-CFTR and YFP-H148Q/I152L; forskolin 20 μM = 100% activity; read-out: Cell-based YFP Assay (EC50) Concentration Range. The arrangement: expressed in transfected cells; host or cells: CHO-K1 (Chinese hamster ovary). The essentials:
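CHO-K1 cells co-expressing human wild-type CFTR and YFP-H148Q/I152L halide sensor, grown 48 h at 37 °C, then in PBS. YFP quenching by I⁻ influx read at 37 °C after adding 140 mM I⁻ solution, sampled every 0.4 s for 14 s. Triplicates averaged; EC50 fitted.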

T1 sequence (P13569 whole entry): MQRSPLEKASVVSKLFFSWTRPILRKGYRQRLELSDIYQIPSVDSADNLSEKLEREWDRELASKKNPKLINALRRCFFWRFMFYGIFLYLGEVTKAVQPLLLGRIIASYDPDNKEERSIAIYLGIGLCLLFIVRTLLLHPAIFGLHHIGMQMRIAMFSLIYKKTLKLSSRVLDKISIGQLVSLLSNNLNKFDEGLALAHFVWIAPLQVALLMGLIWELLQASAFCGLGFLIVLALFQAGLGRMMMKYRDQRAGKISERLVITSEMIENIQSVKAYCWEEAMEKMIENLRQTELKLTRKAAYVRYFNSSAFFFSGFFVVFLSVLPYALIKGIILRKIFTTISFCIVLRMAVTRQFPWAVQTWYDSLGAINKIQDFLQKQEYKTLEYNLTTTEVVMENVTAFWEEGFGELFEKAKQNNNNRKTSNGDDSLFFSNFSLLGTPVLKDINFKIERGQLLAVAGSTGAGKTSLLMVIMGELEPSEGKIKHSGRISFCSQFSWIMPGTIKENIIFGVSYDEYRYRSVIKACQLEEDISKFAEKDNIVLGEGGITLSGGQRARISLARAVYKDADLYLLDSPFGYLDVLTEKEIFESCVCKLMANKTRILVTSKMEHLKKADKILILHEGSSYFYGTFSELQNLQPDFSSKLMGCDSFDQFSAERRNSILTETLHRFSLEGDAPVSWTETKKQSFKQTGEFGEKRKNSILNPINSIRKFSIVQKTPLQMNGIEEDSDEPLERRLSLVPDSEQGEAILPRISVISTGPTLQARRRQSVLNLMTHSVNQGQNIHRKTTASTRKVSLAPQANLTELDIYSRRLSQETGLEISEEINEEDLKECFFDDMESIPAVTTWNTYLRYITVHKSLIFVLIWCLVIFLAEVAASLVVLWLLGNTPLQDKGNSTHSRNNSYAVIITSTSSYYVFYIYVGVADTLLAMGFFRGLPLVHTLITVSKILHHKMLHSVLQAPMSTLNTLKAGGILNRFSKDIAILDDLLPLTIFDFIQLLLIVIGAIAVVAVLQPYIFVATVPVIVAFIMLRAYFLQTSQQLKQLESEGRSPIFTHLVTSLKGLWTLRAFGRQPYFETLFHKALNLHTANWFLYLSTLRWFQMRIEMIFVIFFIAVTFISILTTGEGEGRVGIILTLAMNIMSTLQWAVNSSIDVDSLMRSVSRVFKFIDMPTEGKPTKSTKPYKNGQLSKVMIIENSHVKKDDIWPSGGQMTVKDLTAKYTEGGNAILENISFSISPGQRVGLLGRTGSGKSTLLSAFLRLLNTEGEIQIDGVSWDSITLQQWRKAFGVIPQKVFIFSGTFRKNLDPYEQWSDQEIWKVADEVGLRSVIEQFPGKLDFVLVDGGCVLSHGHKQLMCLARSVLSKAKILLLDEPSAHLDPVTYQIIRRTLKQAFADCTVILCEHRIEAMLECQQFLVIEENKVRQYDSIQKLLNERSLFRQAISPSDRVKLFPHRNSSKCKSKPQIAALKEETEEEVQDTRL

Turning to `COc1ccc(-c2ccnc3cc(C(=O)N4CCN(C(=O)c5c(F)c(F)c(F)c(F)c5F)[C@@H](C)C4)nn23)cc1OC` [Compound 259, (S)-(7-(3,4-dimethoxyphenyl)pyrazolo[1,5-a]pyrimidin-2-yl) (3-methyl-4-(perfluorobenzoyl)piperazin-1-yl)methanone], the solubility at 90 min in series [1] was in the range of 0.1 to 10 µg/mL (≈ 0.174 to 17.4 µM). In addition, in the series with C57BL/6 female mice, the “Ratio of tear volume (test compound to vehicle)” value (“Ratio of tear volume” for short) was 0.94. For the same compound, the EC50 on human wild type-CFTR [2] and on human wild type-CFTR [3] was 200 to 2000 nM each time.
For `COc1ccc(NC(=O)c2cc3nccc(-c4ccc(OC)c(OC)c4)n3n2)cc1` [Compound 6, 7-(3,4-dimethoxyphenyl)-N-(4-methoxyphenyl)pyrazolo[1,5-a]pyrimidine-2-carboxamide], in series [1], the solubility at 90 min was below 0.1 µg/mL. Besides, in the series with C57BL/6 female mice, the “Ratio of tear volume” value is 1.58. The EC50 on human wild type-CFTR [2] and at human wild type-CFTR [3] was below 200 nM throughout.
Regarding `COC(=O)c1ccc(NC(=O)c2cc3nccc(-c4ccc(OC)c(OC)c4)n3n2)cc1Cl` [Compound 140, methyl 2-chloro-4-(7-(3,4-dimethoxyphenyl)pyrazolo[1,5-a]pyrimidine-2-carboxamido)benzoate], in series [1], the solubility at 90 min is below 0.1 µg/mL. For the same compound, in the series on C57BL/6 female mice, the “Ratio of tear volume” value was 1.48. Moreover, the EC50 on human wild type-CFTR [2] and on human wild type-CFTR [3] was below 200 nM throughout.
Take `CCOc1ccc(NC(=O)c2cc3nccc(-c4ccc(OC)c(OC)c4)n3n2)cc1` [Compound 3, 7-(3,4-dimethoxyphenyl)-N-(4-ethoxyphenyl)pyrazolo[1,5-a]pyrimidine-2-carboxamide]: the solubility at 90 min in series [1] is below 0.1 µg/mL. Besides, the “Ratio of tear volume” value with C57BL/6 female mice was 1.20. Moreover, the EC50 at human wild type-CFTR [2] and on human wild type-CFTR [3] was below 200 nM each time.
On to `COc1ccc(-c2ccnc3cc(C(=O)N4CCN(Cc5c(F)cccc5F)CC4)nn23)cc1OC` [Compound 212, (4-(2,6-difluorobenzyl)piperazin-1-yl)(7-(3,4-dimethoxyphenyl)pyrazolo [1,5-a]pyrimidin-2-yl)methanone], for which the solubility at 90 min in series [1] was 0.1 to 10 µg/mL (≈ 0.203 to 20.3 µM). In addition, the “Ratio of tear volume” value in the series with C57BL/6 female mice worked out at 1.43. The EC50 on human wild type-CFTR [2] is at least 2000 nM; on human wild type-CFTR [3], below 200 nM.
For `COC(=O)c1ccc(NC(=O)c2cc3nccc(-c4ccc(OC)c(OC)c4)n3n2)cc1F` [Compound 141, methyl 4-(7-(3,4-dimethoxyphenyl)pyrazolo [1,5-a]pyrimidine-2-carboxamido)-2-fluorobenzoate] the same measures were below 0.1 µg/mL, 1.34, below 200 nM and below 200 nM.
For `COc1ccc(-c2ccnc3cc(C(=O)Nc4ccc(N5CCN(C(=O)OC(C)(C)C)CC5)cc4)nn23)cc1OC` [Compound 271, tert-butyl 4-(4-(7-(3,4-dimethoxyphenyl)pyrazolo [1,5-a]pyrimidine-2-carboxamido)phenyl) piperazine-1-carboxylate] the same measures were below 0.1 µg/mL, 1.17, below 200 nM and below 200 nM.
In the case of `COc1ccc(-c2ccnc3cc(C(=O)NC45CCC(C(=O)N6CCOCC6)(CC4)CC5)nn23)cc1OC` [Compound 186, 7-(3,4-dimethoxyphenyl)-N-(4-(morpholine-4-carbonyl)bicyclo[2.2.2]octan-1-yl)pyrazolo[1,5-a] pyrimidine-2-carboxamide], the solubility at 90 min in series [1] was above 10 µg/mL. Also, the “Ratio of tear volume” value with C57BL/6 female mice stood at 1.05. Moreover, the EC50 at human wild type-CFTR [2] was 200 to 2000 nM; on human wild type-CFTR [3], below 200 nM.
In the case of `COc1ccc(-c2ccnc3cc(C(=O)N[C@H]4CC[C@@H](C(=O)N5CCOCC5)CC4)nn23)cc1OC` [Compound 72, 7-(3,4-dimethoxyphenyl)-N-((1S,4S)-4-(morpholine-4-carbonyl)cyclohexyl) pyrazolo[1,5-a]pyrimidine-2-carboxamide], in series [1], the solubility at 90 min is above 10 µg/mL. Also, the “Ratio of tear volume” value in the series with C57BL/6 female mice was determined as 1.06. Also, the EC50 is at least 2000 nM at human wild type-CFTR [2] and 200 to 2000 nM on human wild type-CFTR [3].
For `COc1ccc(-c2ccnc3cc(C(=O)Nc4ccc(NC(=O)CNC(=O)OC(C)(C)C)cc4)nn23)cc1OC` [Compound 280, tert-butyl (2-((4-(7-(3,4-dimethoxyphenyl)pyrazolo [1,5-a]pyrimidine-2-carboxamido)phenyl)amino)-2-oxoethyl)carbamate], in that order: below 0.1 µg/mL, 1.32, below 200 nM and below 200 nM.
Regarding `COc1ccc(-c2ccnc3cc(C(=O)Nc4ccc(C(=O)O)cc4C)nn23)cc1OC` [Compound 126, 4-(7-(3,4-dimethoxyphenyl)pyrazolo[1,5-a]pyrimidine-2-carboxamido)-3-methylbenzoic acid], the solubility at 90 min in series [1] is 0.1 to 10 µg/mL (≈ 0.231 to 23.1 µM). In addition, in the series with C57BL/6 female mice, the “Ratio of tear volume” value is recorded as 0.97. For the same compound, the EC50 at human wild type-CFTR [2] was at least 2000 nM; on human wild type-CFTR [3], 200 to 2000 nM.
For `COc1ccc(-c2ccnc3cc(C(=O)Nc4ccc(C(=O)N5CCN(C)CC5)cc4F)nn23)cc1OC` [Compound 158, 7-(3,4-dimethoxyphenyl)-N-(2-fluoro-4-(4-methylpiperazine-1-carbonyl)phenyl)pyrazolo[1,5-a]pyrimidine-2-carboxamide], in that order: below 0.1 µg/mL, 1.40, below 200 nM and below 200 nM.
On to `COc1ccc(-c2ccnc3cc(C(=O)Nc4ccc(N5CCC6(CC5)OCCO6)cc4)nn23)cc1OC` [Compound 274, N-(4-(1,4-dioxa-8-azaspiro[4.5]decan-8-yl)phenyl)-7-(3,4-dimethoxyphenyl)pyrazolo [1,5-a]pyrimidine-2-carboxamide], for which the solubility at 90 min in series [1] was below 0.1 µg/mL. For the same compound, the “Ratio of tear volume” value in the series with C57BL/6 female mice came to 1.07. Further, the EC50 on human wild type-CFTR [2] and at human wild type-CFTR [3] was below 200 nM throughout.
On to `COc1ccc(-c2ccnc3cc(C(=O)NC4CCCCC4)nn23)cc1OC` [Compound 2, N-cyclohexyl-7-(3,4-dimethoxyphenyl)pyrazolo[1,5-a]pyrimidine-2-carboxamide], for which the solubility at 90 min in series [1] was below 0.1 µg/mL. Moreover, the “Ratio of tear volume” value in the series with C57BL/6 female mice is 1.40. In addition, the EC50 on human wild type-CFTR [2] was 200 to 2000 nM; at human wild type-CFTR [3], below 200 nM.
